Source: patent US20180273538A1, “PYRROLO[2,3-d]PYRIMIDINE DERIVATIVES, A PROCESS FOR THEIR PREPARATION AND PHARMACEUTICAL COMPOSITIONS CONTAINING THEM” (LES LABORATOIRES SERVIER, priority 2015, published 2018)

Biological target: T1, His-TEV-DYRK1A Kinase domain (aa127-485) (Homo sapiens, UniProt Q13627)
T1 construct: His-TEV-DYRK1A Kinase domain (aa127-485); His (N); TEV cleavage site (N)
Assay: Kinase ADP assay (ADP Hunter Plus)
Assay type: biochemical

IC50	SMILES
0.07 µM	Cc1cc(-c2c[nH]c3nc(C)nc(OC[C@@H]4CCCNC4)c23)ccn1 [Example 6, 2-methyl-5-(2-methylpyridin-4-yl)-4-[(3R)-piperidin-3-ylmethoxy]-7H-pyrrolo[2,3-d]pyrimidine]
0.039 µM	Cc1nc(OCC2CC2)c2c(-c3ccncc3)c[nH]c2n1 [Example 7, 4-(cyclopropylmethoxy)-2-methyl-5-(pyridin-4-yl)-7H-pyrrolo[2,3-d]pyrimidine]
0.038 µM	Cc1nc(OCCC2CC2)c2c(-c3ccncc3)c[nH]c2n1 [Example 8, 4-(2-cyclopropylethoxy)-2-methyl-5-(pyridin-4-yl)-7H-pyrrolo[2,3-d]pyrimidine]
0.06 µM	Cc1nc(OCCc2c[nH]c3ccccc23)c2c(-c3ccncc3)c[nH]c2n1 [Example 9, 4-[2-(1H-indol-3-yl)ethoxy]-2-methyl-5-(pyridin-4-yl)-7H-pyrrolo[2,3-d]pyrimidine]
0.085 µM	Cc1nc(OCCc2ccccc2)c2c(-c3ccncc3)c[nH]c2n1 [Example 10, 2-methyl-4-(2-phenylethoxy)-5-(pyridin-4-yl)-7H-pyrrolo[2,3-d]pyrimidine]
2.04 µM	Cc1nc(OCCN2CCCC2)c2c(-c3ccncc3)c[nH]c2n1 [Example 12, 2-methyl-5-(pyridin-4-yl)-4-[2-(pyrrolidin-1-yl)ethoxy]-7H-pyrrolo[2,3-d]pyrimidine]
1.37 µM	Cc1nc(OCCN2CCCCC2)c2c(-c3ccncc3)c[nH]c2n1 [Example 13, 2-methyl-4-[2-(piperidin-1-yl)ethoxy]-5-(pyridin-4-yl)-7H-pyrrolo[2,3-d]pyrimidine]
0.043 µM	Cc1nc(OCC2CCCO2)c2c(-c3ccncc3)c[nH]c2n1 (centres unmarked) [Example 14, 2-methyl-5-(pyridin-4-yl)-4-(tetrahydrofuran-2-ylmethoxy)-7H-pyrrolo[2,3-d]pyrimidine]
0.025 µM	Cc1nc(OCc2cccs2)c2c(-c3ccnc(N)c3)c[nH]c2n1 [Example 19, 4-[2-methyl-4-(thiophen-2-ylmethoxy)-7H-pyrrolo[2,3-d]pyrimidin-5-yl]pyridin-2-amine]
0.018 µM	Cc1nc(OCc2cccnc2)c2c(-c3ccnc(N)c3)c[nH]c2n1 [Example 22, 4-[2-methyl-4-(pyridin-3-ylmethoxy)-7H-pyrrolo[2,3-d]pyrimidin-5-yl]pyridin-2-amine]
0.015 µM	Cc1nc(OCc2ccncc2)c2c(-c3ccnc(N)c3)c[nH]c2n1 [Example 23, 4-[2-methyl-4-(pyridin-4-ylmethoxy)-7H-pyrrolo[2,3-d]pyrimidin-5-yl]pyridin-2-amine]
0.066 µM	Cc1nc(OCc2cc(-c3ccc(F)cc3)on2)c2c(-c3ccnc(N)c3)c[nH]c2n1 [Example 24, 4-(4-{[5-(4-fluorophenyl)-1,2-oxazal-3-yl]methoxy}-2-methyl-7H-pyrrolo[2,3-d]pyrimidin-5-yl)pyridin-2-amine]
0.029 µM	COc1ccc(COc2nc(C)nc3[nH]cc(-c4ccnc(N)c4)c23)cc1 [Example 26, 4-{4-[(4-methoxybenzyl)oxy]-2-methyl-7H-pyrrolo[2,3-d]pyrimidin-5-yl}pyridin-2-amine]
0.062 µM	Cc1nc(N(C)C)c2c(-c3ccnc(N)c3)c[nH]c2n1 [Example 29, 5-(2-aminopyridin-4-yl)-N,N,2-trimethyl-7H-pyrrolo[2,3-d]pyrimidin-4-amine]
0.827 µM	Cc1nc(N2CCCC2)c2c(-c3ccnc(N)c3)c[nH]c2n1 [Example 30, 4-[2-methyl-4-(pyrrolidin-1-yl)-7H-pyrrolo[2,3-d]pyrimidin-5-yl]pyridin-2-amine]
1.07 µM	Cc1nc(N2CCC(N(C)C)C2)c2c(-c3ccnc(N)c3)c[nH]c2n1 (centres unmarked) [Example 31, 4-{4-[3-(dimethylamino)pyrrolidin-1-yl]-2-methyl-7H-pyrrolo[2,3-d]pyrimidin-5-yl}pyridin-2-amine]
0.165 µM	Cc1nc(N2CCN(C)CC2)c2c(-c3ccnc(N)c3)c[nH]c2n1 [Example 33, 4-[2-methyl-4-(4-methypiperazin-1-yl)-7H-pyrrolo[2,3-d]pyrimidin-5-yl]pyridin-2-amine]
0.278 µM	Cc1nc(NCc2cccnc2)c2c(-c3ccnc(N)c3)c[nH]c2n1 [Example 34, 5-(2-aminopyridin-4-yl)-2-methyl-N-(pyridin-3-ylmethyl)-7H-pyrrolo[2,3-d]pyrimidin-4-amine]
0.149 µM	Cc1nc(NCc2ccnn2C)c2c(-c3ccnc(N)c3)c[nH]c2n1 [Example 38, 5-(2-aminopyridin-4-yl)-2-methyl-N-[(1-methyl-1H-pyrazol-5-yl)methyl]-7H-pyrrolo[2,3-d]pyrimidin-4-amine]
0.084 µM	Cc1nc(NCc2nccs2)c2c(-c3ccnc(N)c3)c[nH]c2n1 [Example 39, 5-(2-aminopyridin-4-yl)-2-methyl-N-(1,3-thiazol-2-ylmethyl)-7H-pyrrolo[2,3-d]pyrimidin-4-amine]
0.158 µM	Cc1nc(NCc2cncs2)c2c(-c3ccnc(N)c3)c[nH]c2n1 [Example 41, 5-(2-aminopyridin-4-yl)-2-methyl-N-(1,3-thiazol-5-ylmethyl)-7H-pyrrolo[2,3-d]pyrimidin-4-amine]

IC50	SMILES
0.233 µM	Cc1nc(NCc2ccccc2)c2c(-c3ccncc3)c[nH]c2n1 [Example 42, N-benzyl-2-methyl-5-(pyridin-4-yl)-7H-pyrrolo[2,3-d]pyrimidin-4-amine]
0.278 µM	Cc1cc(-c2c[nH]c3nc(C)nc(NCc4ccccc4)c23)ccn1 [Example 43, N-benzyl-2-methyl-5-(2-methylpyridin-4-yl)-7H-pyrrolo[2,3-d]pyrimidin-4-amine]
0.249 µM	Cc1nc(NCc2ccsc2)c2c(-c3ccncc3)c[nH]c2n1 [Example 44, 2-methyl-5-(pyridin-4-yl)-N-(thiophen-3-ylmethyl)-7H-pyrrolo[2,3-d]pyrimidin-4-amine]
0.369 µM	Cc1nc(NCc2cc(C)on2)c2c(-c3ccncc3)c[nH]c2n1 [Example 46, 2-methyl-N-[(5-methyl-1,2-oxazol-3-yl)methyl]-5-(pyridin-4-yl)-7H-pyrrolo[2,3-d]pyrimidin-4-amine]
0.372 µM	Cc1cc(-c2c[nH]c3nc(C)nc(NCc4cc(C)on4)c23)ccn1 [Example 47, 2-methyl-N-[(5-methyl-1,2-oxazol-3-yl)methyl]-5-(2-methylpyridin-4-yl)-7H-pyrrolo[2,3-d]pyrimidin-4-amine]
0.127 µM	Cc1nc(NC(C)c2ccccc2)c2c(-c3ccnc(N)c3)c[nH]c2n1 (centres unmarked) [Example 49, 5-(2-aminopyridin-4-yl)-2-methyl-N-(1-phenylethyl)-7H-pyrrolo[2,3-d]pyrimidin-4-amine]
0.045 µM	Cc1nc(NCc2cccc(F)c2)c2c(-c3ccnc(N)c3)c[nH]c2n1 [Example 50, 5-(2-aminopyridin-4-yl)-N-(3-fluorobenzyl)-2-methyl-7H-pyrrolo[2,3-d]pyrimidin-4-amine]
0.094 µM	Cc1nc(N[C@@H](C)c2ccccc2)c2c(-c3ccnc(N)c3)c[nH]c2n1 [Example 67, 5-(2-aminopyridin-4-yl)-2-methyl-N-[(1S)-1-phenylethyl]-7H-pyrrolo[2,3-d]pyrimidin-4-amine]
0.059 µM	Cc1nc(N[C@H](C)c2ccccc2)c2c(-c3ccnc(N)c3)c[nH]c2n1 [Example 68, 5-(2-aminopyridin-4-yl)-2-methyl-N-[(1R)-1-phenylethyl]-7H-pyrrolo[2,3-d]pyrimidin-4-amine]
0.057 µM	Cc1nc(N[C@H]2CCc3ccccc32)c2c(-c3ccnc(N)c3)c[nH]c2n1 [Example 77, 5-(2-aminopyridin-4-yl)-N-[(1S)-2,3-dihydro-1H-inden-1-yl]-2-methyl-7H-pyrrolo[2,3-d]pyrimidin-4-amine]
0.121 µM	Cc1nc(N[C@H](C)c2ccccc2F)c2c(-c3ccnc(N)c3)c[nH]c2n1 [Example 86, 5-(2-aminopyridin-4-yl)-N-[(1R)-1-(2-fluorophenyl)ethyl]-2-methyl-7H-pyrrolo[2,3-d]pyrimidin-4-amine]
1.94 µM	Cc1nc(NCc2ccc(-c3ccccn3)s2)c2c(-c3ccnc(N)c3)c[nH]c2n1 [Example 87, 5-(2-aminopyridin-4-yl)-2-methyl-N-{[5-(pyridin-2-yl)thiophen-2-yl]methyl}-7H-pyrrolo[2,3-d]pyrimidin-4-amine]
2.09 µM	Cc1nc(NCc2cc(-c3ccccc3)no2)c2c(-c3ccnc(N)c3)c[nH]c2n1 [Example 88, 5-(2-aminopyridin-4-yl)-2-methyl N-[(3-phenyl-1,2-oxazol-5-yl)methyl]-7H-pyrrolo[2,3-d]pyrimidin-4-amine]
0.038 µM	Cc1nc(N[C@@H]2CCCc3ccccc32)c2c(-c3ccnc(N)c3)c[nH]c2n1 [Example 91, 5-(2-aminopyridin-4-yl)-2-methyl-N-[(1R)-1,2,3,4-tetrahydronaphthalen-1-yl]-7H-pyrrolo[2,3-d]pyrimidin-4-amine]
0.087 µM	Cc1nc(NCc2cc(Cl)ccc2Cl)c2c(-c3ccnc(N)c3)c[nH]c2n1 [Example 92, 5-(2-aminopyridin-4-yl)-N-(2,5-dichlorobenzyl)-2-methyl-7H-pyrrolo[2,3-d]pyrimidin-4-amine]
0.176 µM	Cc1nc(NC2CCCCC2)c2c(-c3ccnc(N)c3)c[nH]c2n1 [Example 93, 5-(2-aminopyridin-4-yl)-N-cyclohexyl-2-methyl-7H-pyrrolo[2,3-d]pyrimidin-4-amine]
0.063 µM	Cc1nc(N2CCCC(C)C2)c2c(-c3ccnc(N)c3)c[nH]c2n1 (centres unmarked) [Example 97, 4-[2-methyl-4-{3-methylpiperidin-1-yl)-7H-pyrrolo[2,3-d]pyrimidin-5-yl]pyridin-2-amine]
0.161 µM	Cc1nc(NCCC(F)(F)F)c2c(-c3ccnc(N)c3)c[nH]c2n1 [Example 100, 5-(2-aminopyridin-4-yl)-2-methyl-N-(3,3,3-trifluoropropyl)-7H-pyrrolo[2,3-d]pyrimidin-4-amine]
0.034 µM	Cc1nc(N2CCC3(CCCCC3)CC2)c2c(-c3ccnc(N)c3)c[nH]c2n1 [Example 101, 4-[4-(3-azaspiro[5.5]undec-3-yl)-2-methyl-7H-pyrrolo[2,3-d]pyrimidin-5-yl]pyridin-2-amine]
0.293 µM	Cc1nc(N2CCC3(CCC(C)CC3)C2)c2c(-c3ccnc(N)c3)c[nH]c2n1 (centres unmarked) [Example 102, 4-[2-methyl-4-(8-methyl-2-azaspiro[4.5]dec-2-yl)-7H-pyrrolo[2,3-d]pyrimidin-5-yl]pyridin-2-amine]
